The values that follow come from PubChem BioAssay (NCI).

Molecules are shown by their SMILES.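 How tested: cells in 96-well plates exposed to compound for 48 hours at five concentrations. GI50: concentration for 50% inhibition of growth. At the TGI there is no net growth.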

Assay in all cases: NCI anticancer screen, dose series, 48 h
Experiment [1] relates to ACHN renal.
Experiment [2] relates to U251 CNS.
Experiment [3] deals with HCT-116 colon.
Experiment [4] concerns SF-295 CNS.
In experiment [5] the test system is SNB-19 CNS.
Experiment [6] relates to CCRF-CEM leukemia.
The test system of experiment [7] is CAKI-1 renal.
Experiment [8] relates to MDA-MB-435.
For experiment [9], the system named is DU-145 prostate.
The test system of experiment [10] is UO-31 renal.

`O=C(Nc1ccc(Nc2ccc3c(c2)C(=O)c2ccccc2C3=O)c2c1C(=O)c1ccccc1C2=O)c1ccccc1`: the TGI in experiment [1] was above 100 µM; in experiment [2], 98.7 µM; in experiment [3], above 100 µM; in [4] it was above 100 µM; in [5] it was above 100 µM; in experiment [6] it was above 72.8 µM. Moreover, the TGI in experiment [7], in experiment [8], in [9] and in [10] was above 100 µM in each case.
As for `C=CC(=O)N1CCN([C@@H](CC2CC2)c2ccc([C@H](C)Nc3ncc4c(n3)N(CC)C(=O)OC4)cc2)CC1`, the GI50 is 14.5 µM in [1]; 11.8 µM in experiment [2]; 7.67 µM in experiment [3]; 13 µM in experiment [4]; 14.4 µM in [5]; 4.29 µM in experiment [6]. The GI50 in [7] is 5.23 µM; in experiment [8], 11.1 µM; in experiment [9], 12.7 µM; in [10], 10.8 µM. The TGI in experiment [1] amounted to 27.9 µM; in experiment [2], 26.3 µM; in experiment [3], 21.9 µM; in experiment [4], 26.3 µM; in experiment [5] it was 27.8 µM; in experiment [6], 25.2 µM. For the same compound, the TGI came to 19 µM in experiment [7], 23.6 µM in experiment [8], 25.4 µM in experiment [9] and 26.3 µM in [10].
